Measured values taken from US20240150362A1, “Substituted Pyrrolotriazines” (Molecure S.A., priority 2022, published 2024).
Where a name gives a salt, the structure may show the parent alone.

Molecular target: T1, full-length USP7 (Homo sapiens, UniProt Q93009)
T1 construct: A 45 μl reaction volume containing full-length USP7 (0.5-1.0 nM)
Test: Enzymatic assay to determine IC50 of USP7 inhibitors (Ubiquitin-Rhodamine 110 cleavage)
Assay type: biochemical
Conditions: full-length USP7 0.5-1.0 nM, 0.5 μM Ubiquitin-Rhodamine 110, 30-60 min at 25° C.
Method: Enzymatic Assay to Determine IC50 of USP7 Inhibitors
The IC50 is the concentration of an inhibitor where the measured enzyme activity is reduced by half. In the case of USP7 deubiquitinase, the IC50 of an USP7 inhibitor is the molar concentration of the compound that inhibits 50% of the activity observed in a USP7-mediated-ubiquitin-rhodamine cleavage assay. For the inhibitors disclosed herein, their potency was measured using the following method.
A 45 μl reaction volume containing full-length USP7 (0.5-1.0 nM) in 50 mM HEPES pH 7.5, 150 mM NaCl, 2 mM DTT, 1 mg/ml BSA and 0.05% Tween20 was assembled in wells of 96 well half area black flat bottom plates. Test compounds were first dissolved to 30 mM stocks in DMSO and subsequently introduced to enzyme 15 min after USP7 incubation with DTT at room temperature. The enzymatic reaction was started by adding 0.5 μM Ubiquitin-Rhodamine 110 (final concentration) and allowed to proceed for 30-60 min at 25° C., 250 RPM shaking before Rhodamine fluorescence (485 nm excitation/535 nm emission) was measured using Tecan Spark M10 plate reader. The IC50 values were determined by data fitting to variable slope model four-parameter dose-response curve using GraphPad 7.05.

T1 sequence (Q93009 whole entry): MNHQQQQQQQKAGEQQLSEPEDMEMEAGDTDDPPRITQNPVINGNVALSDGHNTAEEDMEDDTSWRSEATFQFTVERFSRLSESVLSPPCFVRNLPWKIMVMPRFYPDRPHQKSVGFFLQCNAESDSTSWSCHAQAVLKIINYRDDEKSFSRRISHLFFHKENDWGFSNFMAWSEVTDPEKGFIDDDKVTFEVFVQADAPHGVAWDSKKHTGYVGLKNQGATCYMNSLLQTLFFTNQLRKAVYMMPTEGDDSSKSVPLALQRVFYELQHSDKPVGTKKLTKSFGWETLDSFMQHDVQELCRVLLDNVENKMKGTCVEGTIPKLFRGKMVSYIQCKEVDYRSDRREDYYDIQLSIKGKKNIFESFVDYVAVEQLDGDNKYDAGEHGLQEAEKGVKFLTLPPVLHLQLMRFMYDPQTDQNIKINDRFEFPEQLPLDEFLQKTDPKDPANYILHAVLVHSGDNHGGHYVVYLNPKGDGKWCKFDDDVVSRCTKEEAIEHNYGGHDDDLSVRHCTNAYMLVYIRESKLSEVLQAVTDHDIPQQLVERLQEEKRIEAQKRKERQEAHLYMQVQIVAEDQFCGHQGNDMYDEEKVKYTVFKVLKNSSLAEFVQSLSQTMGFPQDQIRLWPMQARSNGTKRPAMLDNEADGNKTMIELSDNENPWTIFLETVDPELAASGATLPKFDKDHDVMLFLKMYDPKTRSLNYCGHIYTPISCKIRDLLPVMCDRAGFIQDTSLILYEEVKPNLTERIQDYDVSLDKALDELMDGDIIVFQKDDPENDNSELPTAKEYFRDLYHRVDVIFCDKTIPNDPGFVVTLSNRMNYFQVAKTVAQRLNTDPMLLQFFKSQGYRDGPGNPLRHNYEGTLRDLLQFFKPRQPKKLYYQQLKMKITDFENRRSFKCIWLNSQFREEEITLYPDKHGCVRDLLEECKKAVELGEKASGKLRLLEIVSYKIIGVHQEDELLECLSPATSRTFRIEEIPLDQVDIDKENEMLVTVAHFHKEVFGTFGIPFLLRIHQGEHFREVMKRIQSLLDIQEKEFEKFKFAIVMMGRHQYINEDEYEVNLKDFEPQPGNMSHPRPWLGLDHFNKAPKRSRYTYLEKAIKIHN

`Cc1cc(Cl)cc(-c2ncnn3cc(CN4C(=O)C5C(C4=O)C5(C)C)cc23)c1CC1CNCC2(CC2)O1` (racemic) [Example 46, 3-((4-(2-((4-oxa-7-azaspiro[2.5]octan-5-yl)methyl)-5-chloro-3-methylphenyl)pyrrolo[2,1-f][1,2,4]triazin-6-yl)methyl)-6,6-dimethyl-3-azabicyclo[3.1.0]hexane-2,4-dione hydrochloride] was tested. Which IC50 did it give?
Its IC50 is under 500 nM.

`Cc1cc(Cl)cc(-c2ncnn3cc(CN4C(=O)C5C(C4=O)C5(C)C)cc23)c1CC1CNCC(C)(C)O1` (racemic) [Example 50, 3-((4-(5-chloro-2-((6,6-dimethylmorpholin-2-yl)methyl)-3-methylphenyl)pyrrolo[2,1-f][1,2,4]triazin-6-yl)methyl)-6,6-dimethyl-3-azabicyclo[3.1.0]hexane-2,4-dione hydrochloride] was tested. Which IC50 did it give?
Its IC50 is under 500 nM.

With `CC1(C)C2C(=O)N(Cc3cc4c(-c5cc(Cl)cc6c5N(C5CCNC5)CCC6)ncnn4c3)C(=O)C21` (racemic) [Example 51, 3-((4-(6-chloro-1-(pyrrolidin-3-yl)-1,2,3,4-tetrahydroquinolin-8-yl)pyrrolo[2,1-f][1,2,4]triazin-6-yl)methyl)-6,6-dimethyl-3-azabicyclo[3.1.0]hexane-2,4-dione hydrochloride] as the molecule, how does the IC50 read?
Its IC50 is under 500 nM.

How did the IC50 turn out when `Cc1cc(Cl)cc(-c2ncnn3cc(Cn4c(=O)ccn(C)c4=O)cc23)c1CC1CNCCO1` (racemic) [Example 60, 3-((4-(5-chloro-3-methyl-2-(morpholin-2-ylmethyl)phenyl)pyrrolo[2,1-f][1,2,4]triazin-6-yl)methyl)-1-methylpyrimidine-2,4(1H,3H)-dione hydrochloride] was run?
The IC50 was under 500 nM.

`Cc1cc(Cl)cc(-c2ncnn3cc(Cn4c(=O)ccn(CC(F)(F)F)c4=O)cc23)c1CC1CNCCO1` (racemic) [Example 68, 3-((4-(5-chloro-3-methyl-2-(morpholin-2-ylmethyl)phenyl)pyrrolo[2,1-f][1,2,4]triazin-6-yl)methyl)-1-(2,2,2-trifluoroethyl)pyrimidine-2,4(1H,3H)-dione hydrochloride] was tested. Which IC50 did it give?
The IC50 was under 500 nM.

Which IC50 does the source give for `CC1(C)C2C(=O)N(Cc3cc4c(-c5cc(Cl)cc6ccn(C[C@@H]7CNCCO7)c56)ncnn4c3)C(=O)C21` (single isomer, unassigned) [Example 30, dihydrochloride] here?
The IC50 was under 500 nM.

`Cc1cc(Cl)cc(-c2ncnn3cc(CN4C(=O)C5C(C4=O)C5(C)C)cc23)c1CC1CN[C@H](C)CO1` (single isomer, unassigned) [Example 41, hydrochloride] was tested. Which IC50 did it give?
Its IC50 is under 500 nM.

`CC1(C)C2C(=O)N(Cc3cc4c(-c5cc(Cl)cc6c5N(C5CCNC5)CCC6)ncnn4c3)C(=O)C21` (single isomer, unassigned) [Example 66, 3-((4-(6-chloro-1-(pyrrolidin-3-yl)-1,2,3,4-tetrahydroquinolin-8-yl)pyrrolo[2,1-f][1,2,4]triazin-6-yl)methyl)-6,6-dimethyl-3-azabicyclo[3.1.0]hexane-2,4-dione hydrochloride] was tested. Which IC50 did it give?
The IC50 was under 500 nM.

`CC1(C)C2C(=O)N(Cc3cc4c(-c5cc(Cl)cc6c5N(C5CCNC5)CCC6)ncnn4c3)C(=O)C21` (single isomer, unassigned) [Example 67, 3-((4-(6-chloro-1-(pyrrolidin-3-yl)-1,2,3,4-tetrahydroquinolin-8-yl)pyrrolo[2,1-f][1,2,4]triazin-6-yl)methyl)-6,6-dimethyl-3-azabicyclo[3.1.0]hexane-2,4-dione hydrochloride] was tested. Which IC50 did it give?
The IC50 was under 500 nM.

Which IC50 does the source give for `Cc1cc(Cl)cc(-c2ncnn3cc(Cn4c(=O)ccn(C)c4=O)cc23)c1C[C@@H]1CNCCO1` (single isomer, unassigned) [Example 82, hydrochloride] here?
Its IC50 is under 500 nM.

With `Cc1cc(Cl)cc(-c2ncnn3cc(Cn4c(=O)ccn(CC(F)(F)F)c4=O)cc23)c1C[C@@H]1CNCCO1` (single isomer, unassigned) [Example 83, hydrochloride] as the molecule, how does the IC50 read?
The IC50 was under 500 nM.

`Cc1cc(Cl)cc(-c2ncnn3cc(Cn4c(=O)ccn(C(C)C)c4=O)cc23)c1C[C@@H]1CNCCO1` (single isomer, unassigned) [Example 89, hydrochloride] was tested. Which IC50 did it give?
Its IC50 is under 500 nM.

With `CCn1ccc(=O)n(Cc2cc3c(-c4cc(Cl)cc(C)c4C[C@@H]4CNCCO4)ncnn3c2)c1=O` (single isomer, unassigned) [Example 104, hydrochloride] as the molecule, how does the IC50 read?
The IC50 was under 500 nM.

For `[2H]C([2H])([2H])n1ccc(=O)n(Cc2cc3c(-c4cc(Cl)cc(C)c4C[C@@H]4CNCCO4)ncnn3c2)c1=O` (single isomer, unassigned) [Example 105, hydrochloride], which IC50 is on record?
Its IC50 is under 500 nM.

How did the IC50 turn out when `Cc1cc(Cl)cc(-c2ncnn3cc(Cn4c(=O)ccn(C5CC5)c4=O)cc23)c1CC1CNC[C@H](C)O1` (single isomer, unassigned) [Example 106, hydrochloride] was run?
Its IC50 is under 500 nM.

Which IC50 does the source give for `Cc1cc(Cl)cc(-c2ncnn3cc(Cn4c(=O)ccn(C5CC5)c4=O)cc23)c1C[C@@H]1CNCCO1` (single isomer, unassigned) [Example 107, hydrochloride] here?
The IC50 was under 500 nM.

Which IC50 does the source give for `Cc1cc(Cl)cc(-c2ncnn3cc(Cn4c(=O)c(F)cn(C)c4=O)cc23)c1CC1CNC[C@H](C)O1` (single isomer, unassigned) [Example 108, hydrochloride] here?
The IC50 was under 500 nM.

For `Cc1cc(Cl)cc(-c2ncnn3cc(Cn4c(=O)ccn(C)c4=O)cc23)c1CC1CN[C@@H](C)CO1` (single isomer, unassigned) [Example 110, hydrochloride], which IC50 is on record?
Its IC50 is under 500 nM.

`Cc1cc(Cl)cc(-c2ncnn3cc(Cn4c(=O)ccn(C(C)C)c4=O)cc23)c1CC1CN[C@@H](C)CO1` (single isomer, unassigned) [Example 113, hydrochloride] was tested. Which IC50 did it give?
Its IC50 is under 500 nM.

Which IC50 does the source give for `CCn1ccc(=O)n(Cc2cc3c(-c4cc(Cl)cc(C)c4CC4CNC[C@H](C)O4)ncnn3c2)c1=O` (single isomer, unassigned) [Example 114, hydrochloride] here?
Its IC50 is under 500 nM.

`Cc1cc(Cl)cc(-c2ncnn3cc(Cn4c(=O)c(C)cn(C)c4=O)cc23)c1CC1CNC[C@H](C)O1` (single isomer, unassigned) [Example 115, hydrochloride] was tested. Which IC50 did it give?
The IC50 was under 500 nM.

For `Cc1cc(Cl)cc(-c2ncnn3cc(CN4C(=O)CN(C)CC4=O)cc23)c1CC1CNC[C@H](C)O1` (single isomer, unassigned) [Example 117, hydrochloride], which IC50 is on record?
Its IC50 is under 500 nM.

Which IC50 does the source give for `Cc1cc(Cl)cc(-c2ncnn3cc(Cn4c(=O)cc[nH]c4=O)cc23)c1C[C@@H]1CNCCO1` (single isomer, unassigned) [Example 124, hydrochloride] here?
The IC50 was under 500 nM.

Which IC50 does the source give for `C[C@H]1CNCC(Cc2c(Cl)cc(Cl)cc2-c2ncnn3cc(Cn4c(=O)ccn(C)c4=O)cc23)O1` (single isomer, unassigned) [Example 126, hydrochloride] here?
Its IC50 is under 500 nM.

Which IC50 does the source give for `Cc1cc(Cl)cc(-c2ncnn3cc(CN4C(=O)C5C(C4=O)C5(C)C)cc23)c1O[C@H]1CCCNC1` (stereo partly drawn) [Example 1, 3-((4-(5-chloro-3-methyl-2-(((S)-piperidin-3-yl)oxy)phenyl)pyrrolo[2,1-f][1,2,4]triazin-6-yl)methyl)-6,6-dimethyl-3-azabicyclo[3.1.0]hexane-2,4-dione hydrochloride] here?
Its IC50 is under 500 nM.

How did the IC50 turn out when `Cc1cc(Cl)cc(-c2ncnn3cc(CN4C(=O)C5C(C4=O)C5(C)C)cc23)c1C[C@@H]1CNCCO1` (stereo partly drawn) [Example 2, 3-((4-(5-chloro-3-methyl-2-(((R)-morpholin-2-yl)methyl)phenyl)pyrrolo[2,1-f][1,2,4]triazin-6-yl)methyl)-6,6-dimethyl-3-azabicyclo[3.1.0]hexane-2,4-dione hydrochloride] was run?
Its IC50 is under 500 nM.

Which IC50 does the source give for `Cc1cc(Cl)cc(-c2ncnn3cc(CN4C(=O)C5C(C4=O)C5(C)C)cc23)c1CN1CCNC[C@@H]1C` (stereo partly drawn) [Example 6, 3-((4-(5-chloro-3-methyl-2-(((S)-2-methylpiperazin-1-yl)methyl)phenyl)pyrrolo[2,1-f][1,2,4]triazin-6-yl)methyl)-6,6-dimethyl-3-azabicyclo[3.1.0]hexane-2,4-dione hydrochloride] here?
The IC50 was under 500 nM.

How did the IC50 turn out when `CC1(C)C2C(=O)N(Cc3cc4c(-c5cc(Cl)cc6ccn(CC7(F)CCNCC7)c56)ncnn4c3)C(=O)C21` (stereo not drawn) [Example 10, 3-((4-(5-chloro-1-((4-fluoropiperidin-4-yl)methyl)-1H-indol-7-yl)pyrrolo[2,1-f][1,2,4]triazin-6-yl)methyl)-6,6-dimethyl-3-azabicyclo[3.1.0]hexane-2,4-dione hydrochloride] was run?
The IC50 was under 500 nM.

How did the IC50 turn out when `Cc1cc(Cl)cc(-c2ncnn3cc(CN4C(=O)C5C(C4=O)C5(C)C)cc23)c1CN1[C@@H](C)CNC[C@@H]1C` (stereo partly drawn) [Example 11, 3-((4-(5-chloro-2-(((2S,6S)-2,6-dimethylpiperazin-1-yl)methyl)-3-methylphenyl)pyrrolo[2,1-f][1,2,4]triazin-6-yl)methyl)-6,6-dimethyl-3-azabicyclo[3.1.0]hexane-2,4-dione dihydrochloride] was run?
Its IC50 is under 500 nM.

How did the IC50 turn out when `Cc1cc(Cl)cc(-c2ncnn3cc(CN4C(=O)C5C(C4=O)C5(C)C)c(C)c23)c1C[C@@H]1CNCCO1` (stereo partly drawn) [Example 13, 3-((4-(5-chloro-3-methyl-2-(((R)-morpholin-2-yl)methyl)phenyl)-5-methylpyrrolo[2,1-f][1,2,4]triazin-6-yl)methyl)-6,6-dimethyl-3-azabicyclo[3.1.0]hexane-2,4-dione hydrochloride] was run?
The IC50 was 500 to 1000 nM.
